Reference: patent US20010023832A1, “Chemical sensor and use thereof” (priority 1995, published 2001)

Molecular target: the enzyme urea (Canavalia ensiformis, UniProt P07374)
Assay: Effect of potential interfering substances on the pH response of the urea(bio)sensor
Type: biochemical
Excerpt: Furthermore, the effect of potential interfering substances, such as glucose, acetone, citric acid and sodium acetate, was investigated, see Table 2.

the enzyme urea, sequence (P07374 whole entry, looked up): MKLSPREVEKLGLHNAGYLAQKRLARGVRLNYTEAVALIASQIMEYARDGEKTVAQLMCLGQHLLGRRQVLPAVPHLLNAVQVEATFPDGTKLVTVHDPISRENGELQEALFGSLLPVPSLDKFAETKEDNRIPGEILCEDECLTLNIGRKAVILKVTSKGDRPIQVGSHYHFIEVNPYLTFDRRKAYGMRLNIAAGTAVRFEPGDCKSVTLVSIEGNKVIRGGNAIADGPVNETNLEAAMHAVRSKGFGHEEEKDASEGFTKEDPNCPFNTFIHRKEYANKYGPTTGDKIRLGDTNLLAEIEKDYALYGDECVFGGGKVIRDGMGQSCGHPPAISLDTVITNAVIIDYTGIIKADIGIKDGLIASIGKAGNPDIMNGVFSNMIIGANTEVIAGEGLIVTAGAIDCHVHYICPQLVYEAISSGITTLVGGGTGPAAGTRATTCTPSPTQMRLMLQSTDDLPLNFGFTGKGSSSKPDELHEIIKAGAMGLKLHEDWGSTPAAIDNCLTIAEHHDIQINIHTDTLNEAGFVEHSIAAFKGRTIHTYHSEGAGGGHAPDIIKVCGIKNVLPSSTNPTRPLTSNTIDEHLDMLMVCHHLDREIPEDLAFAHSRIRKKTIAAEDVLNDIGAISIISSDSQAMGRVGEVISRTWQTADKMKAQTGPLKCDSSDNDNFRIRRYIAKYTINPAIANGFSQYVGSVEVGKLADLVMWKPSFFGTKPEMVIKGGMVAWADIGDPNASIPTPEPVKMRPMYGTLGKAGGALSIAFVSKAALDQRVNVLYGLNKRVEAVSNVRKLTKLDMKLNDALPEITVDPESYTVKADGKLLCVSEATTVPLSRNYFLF

SMILES	Change in ΔpH (%) (substance 1 mM in sample solution, no stabiliser)	Change in ΔpH (%) (substance 1 mM, value in parentheses, stabiliser (for instance EDTA) injected together with the enzyme)	Change in ΔpH (%) (substance 2 mM in sample solution, no stabiliser)	Change in ΔpH (%) (substance 2 mM, value in parentheses, stabiliser (for instance EDTA) injected together with the enzyme)	Change in ΔpH (%) (substance 0.6 mM in sample solution, urea(bio)sensor, pH electrode)
O=S(=O)([O-])[O-].[Cu+2] [Copper sulphate]	−38	0	−65	0	–
CC(=O)[O-].[Na+] [Sodium acetate]	–	–	–	–	0
